Results from patent US8835469B2 (Cadila Healthcare Limited, priority 2009, dated 2014).

Biological target: T1, glucokinase (GK) enzyme (Homo sapiens, UniProt P35557)
T1 sequence (P35557 1-465): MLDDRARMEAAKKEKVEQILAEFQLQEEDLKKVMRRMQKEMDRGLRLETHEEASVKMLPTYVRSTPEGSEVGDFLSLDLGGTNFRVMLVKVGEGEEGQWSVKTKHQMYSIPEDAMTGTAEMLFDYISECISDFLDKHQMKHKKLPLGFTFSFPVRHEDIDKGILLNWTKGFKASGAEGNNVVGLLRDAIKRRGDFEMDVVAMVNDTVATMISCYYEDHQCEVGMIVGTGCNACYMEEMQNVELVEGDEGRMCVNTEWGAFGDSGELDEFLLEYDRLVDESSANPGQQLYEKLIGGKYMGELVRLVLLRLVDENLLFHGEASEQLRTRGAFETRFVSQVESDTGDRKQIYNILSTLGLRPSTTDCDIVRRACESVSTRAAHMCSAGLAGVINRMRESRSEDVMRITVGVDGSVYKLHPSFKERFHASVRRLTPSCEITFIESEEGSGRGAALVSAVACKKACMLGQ
Assay: In-vitro glucokinase (GK) activation assay (coupled with glucose-6-phosphate dehydrogenase, absorbance at 340)
Type: biochemical
Details: glucose 2.5 mM; for activity at 0.1 µM / activity at 1 µM / activity at 5 µM / activity at 10 µM: read-out: % of GK activity wrt DMSO
Method: The compound of the invention was incubated with glucokinase (GK) enzyme (0.2 units) for 10 minutes in assay buffer at 26° C. After incubation, addition of glucose-6-phosphate dehydrogenase (2.5 units), ATP (1 mM) and glucose (2.5 mM). Absorbance is measured at 340 nm for 15 minutes with 10 second interval using UV transparent plate in kinetic mode on Spectramax-190 at 30° C.

Compound | activity at 0.1 µM (0.1 uM compound) [%] | activity at 1 µM (1 uM compound) [%] | activity at 5 µM (5 uM compound) [%] | activity at 10 µM (10 uM compound) [%] | % of GK activity wrt DMSO (0.1 uM compound) [%] | % of GK activity wrt DMSO (1 uM compound) [%] | % of GK activity wrt DMSO (5 uM compound) [%] | % of GK activity wrt DMSO (10 uM compound) [%]
Cc1csc(NC(=O)c2cc(Oc3ccc(-c4nnc(-c5ccccc5)o4)cc3)cc(OC3CCN(C)C3=O)c2)n1 (stereo not drawn) [Example 31, 3-((1-Methyl-2-oxopyrrolidin-3-yl)oxy)-N-(4-methylthiazol-2-yl)-5-(4-(5-phenyl-1,3,4-oxadiazol-2-yl)phenoxy)benzamide] | 146 | 295 | 356 | 343 |  |  |  | 
CN1CCC(Oc2cc(Oc3ccc(-c4nnc(C5CC5)o4)cc3)cc(C(=O)Nc3nccs3)c2)C1=O (stereo not drawn) [Example 32, 3-(4-(5-Cyclopropyl-1,3,4-oxadiazol-2-yl)phenoxy)-5-((1-methyl-2-oxopyrrolidin-3-yl)oxy)-N-(thiazol-2-yl)benzamide] | 187 | 304 | 366 | 382 |  |  |  | 
Cc1csc(NC(=O)c2cc(Oc3ccc(-c4nnc(C5CC5)o4)cc3)cc(OC3CCN(C)C3=O)c2)n1 (stereo not drawn) [Example 33, 3-(4-(5-Cyclopropyl-1,3,4-oxadiazol-2-yl)phenoxy)-5-((1-methyl-2-oxopyrrolidin-3-yl)oxy)-N-(4-methylthiazol-2-yl)benzamide] | 201 | 309 | 383 | 375 |  |  |  | 
CN1CCC(Oc2cc(Oc3ccc(-c4nnc(-c5ccccc5)o4)cc3)cc(C(=O)Nc3nccs3)c2)C1=O (stereo not drawn) [Example 34, 3((1-Methyl-2-oxopyrrolidin-3-yl)oxy)-5-(4-(5-phenyl-1,3,4-oxadiazol-2-yl)phenoxy)-N-(thiazol-2-yl)benzamide] | 182 | 350 | 396 | 337 |  |  |  | 
CCN1CCC(Oc2cc(Oc3ccc(-c4nnc(C)o4)cc3)cc(C(=O)Nc3nccs3)c2)C1=O (stereo not drawn) [Example 35, 3((1-Ethyl-2-oxopyrrolidin-3-yl)oxy)-5-(4-(5-methyl-1,3,4-oxadiazol-2-yl)phenoxy)-N-(thiazol-2-yl)benzamide] | 181 | 322 | 382 | 366 |  |  |  | 
Cc1nnc(-c2ccc(Oc3cc(OC4CCN(C5CCCCC5)C4=O)cc(C(=O)Nc4nccs4)c3)cc2)o1 (stereo not drawn) [Example 36, 3((1-Cyclohexyl-2-oxopyrrolidin-3-yl)oxy)-5-(4-(5-methyl-1,3,4-oxadiazol-2-yl)phenoxy)-N-(thiazol-2-yl)benzamide] | 133 | 177 | 254 | 225 |  |  |  | 
Cc1nnc(-c2ccc(Oc3cc(OC4CCN(C)C4=O)cc(C(=O)Nc4ncc(Br)s4)c3)cc2)o1 (stereo not drawn) [Example 38, N-(5-Bromothiazol-2-yl)-3-(4-(5-methyl-1,3,4-oxadiazol-2-yl)phenoxy)-5-((1-methyl-2-oxopyrrolidin-3-yl)oxy)benzamide] | 150 | 205 | 252 | 256 |  |  |  | 
Cc1nnc(-c2ccc(Oc3cc(OC4CCN(C)C4=O)cc(C(=O)Nc4ncccc4O)c3)cc2)o1 (stereo not drawn) [Example 39, N-(3-hydroxypyridin-2-yl)-3-(4-(5-methyl-1,3,4-oxadiazol-2-yl)phenoxy)-5-((1-methyl-2-oxopyrrolidin-3-yl)oxy)benzamide] | 151 | 179 | 215 | 262 |  |  |  | 
(S)-3-(4-(5-methyl-1,3,4-oxadiazol-2-yl)phenoxy)-5-((2-oxopyrrolidin-3-yl)oxy)-N-(thiazol-2-yl)benzamide [Example 70] |  |  |  |  | 238.3 | 315.1 | 318.4 | 325.6
